# Measurements from publication PMC10782225 (The FASEB Journal, 2023).
# Molecular target: T1, unaltered α7β2‐nAChR (Homo sapiens, UniProt P17787+P36544)
# T1 construct: expressed in transfected cells; host or cells: Xenopus laevis oocytes, cRNA injection
# Assay: ACh concentration‐response curve, TEVC, unaltered α7β2‐nAChR
# Assay type: cell-based
# Details: mean ± SEM of 15–19 oocytes
# Source text: Stimulations lasted 3 s, and were applied sequentially, 60 s apart.
# T1 sequence (P36544 23-502): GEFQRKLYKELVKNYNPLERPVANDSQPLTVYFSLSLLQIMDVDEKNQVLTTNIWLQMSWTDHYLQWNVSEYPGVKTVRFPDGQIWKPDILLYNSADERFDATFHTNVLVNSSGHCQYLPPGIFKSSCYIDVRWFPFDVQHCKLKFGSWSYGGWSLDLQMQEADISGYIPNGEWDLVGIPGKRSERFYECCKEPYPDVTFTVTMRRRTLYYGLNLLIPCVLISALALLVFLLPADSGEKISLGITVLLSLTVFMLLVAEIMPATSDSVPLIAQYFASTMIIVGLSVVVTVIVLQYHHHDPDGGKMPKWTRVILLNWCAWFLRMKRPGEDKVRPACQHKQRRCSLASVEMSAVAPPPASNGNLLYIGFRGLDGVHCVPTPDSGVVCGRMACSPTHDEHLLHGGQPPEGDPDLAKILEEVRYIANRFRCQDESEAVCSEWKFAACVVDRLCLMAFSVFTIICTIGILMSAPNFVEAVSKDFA
# T1 sequence (P17787 26-502): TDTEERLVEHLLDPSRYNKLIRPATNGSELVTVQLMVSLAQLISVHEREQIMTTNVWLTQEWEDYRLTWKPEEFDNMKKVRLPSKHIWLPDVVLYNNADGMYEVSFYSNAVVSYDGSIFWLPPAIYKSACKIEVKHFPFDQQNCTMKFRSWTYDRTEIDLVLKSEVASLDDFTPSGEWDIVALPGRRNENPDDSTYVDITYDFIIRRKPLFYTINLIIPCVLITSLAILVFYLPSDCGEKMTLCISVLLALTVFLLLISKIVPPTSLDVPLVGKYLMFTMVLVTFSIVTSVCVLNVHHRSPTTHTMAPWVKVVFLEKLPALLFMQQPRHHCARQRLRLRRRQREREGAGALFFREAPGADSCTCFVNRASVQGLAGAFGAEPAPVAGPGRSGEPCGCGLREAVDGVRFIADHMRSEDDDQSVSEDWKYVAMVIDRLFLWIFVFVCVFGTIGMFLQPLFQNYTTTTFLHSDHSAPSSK
compound,measurement,setting,value
"CC(=O)OCC[N+](C)(C)C [ACh, acetylcholine]","Imax, maximum function induced by ACh, unaltered α7β2‐nAChR","ACh 10 μM – 10 mM, half‐log steps, 3 s, 60 s apart",1353 ± 149 nA
same,"hillslope (nH), unaltered α7β2‐nAChR",logistic fit per oocyte,1.03 ± 0.07
